Test results as given in patent US9977030B2, “Detection of shed CD31, diagnosis of atherothrombosis and autoimmune disorders, and methods for analyzing signaling pathways” (INSTITUT NATIONAL DE LA SANTE ET DE LA RECHERCHE MEDICALE …, priority 2008, dated 2018).

System: CD31 signaling complex captured by PECAM1.2 (CD31 domain 6) beads
Test: CBA beads assessment of CD31 ITIM-dependent inhibitory pathway in Jurkat T cells (protein association and phosphorylation)
Type: cell-based, human
Experimental: Lysis of the cells. Jurkat T cells in log phase (10×10^6/ml, 1 ml) were either left untouched (negative control) or incubated with Na3VO4/H2O2 (sodium ortovanadate which is a tyrosin phosphatase inhibitor, positive control for tyrosin phosphorylation). In parallel, cells were stimulated either with CD3 or with CD3+ CD31 (domain 2, WM-59 antibody) by antibody-mediated crosslinking. After 20′ incubation at 37° C. in 5% CO2, the cells were lysed on ice for 30′ with a RIPA buffer containing a cocktail of protease and phosphatase inhibitors. Lysates were ultragentrifuged and supernatants were used either straightforward or aliquoted and stored at −20° for further analysis.
Capture of the target protein on a solid support (1 hour at room temperature). This step follows the principle of imunoprecipitation but the signaling complex is nor denatured neither reduced, and no electrophoresis and/or blotting is carried out. As a solid support, CBA® functional beads previously coupled with an antibody directed to the membrane-proximal CD31 Ig-like domain 6 (clone MBC 78.2 also called PECAM1.2) were used following the manufacturer's instructions. An aliquot of 20 μl of lysate supernatant from each condition was incubated with 5 μl PECAM1.2-CBA® for 1 hour at room temperature.
Detection of molecules associated with CD31 and of the phosphorylation state of CD31 ITIM 686. After washing of the beads once with CBA washing buffer (100 μl/tube), the beads were been aliquoted in 4 separate tubes and incubated with fluorescent antibodies directed to: • CD3-FITC; • CD28-PE; • CD31 domain 6 (PECAM1.2 FITC) • CD31 domain 2 (WM-59 PE) • phosphoTyrosin (clone 4G10 FITC); • phosphoSerin/Threonin (labelled with FITC) • CD31 phosphotyrosin 686 (rabbit polyclonal conjugated with alexafluor 488 antirabbit secondary antibody); or • SHP2-PE.
After 1 hour incubation at room temperature in the dark, beads were washed once with 100 μl CBA washing buffer and more than 600 beads were acquired using an LSR II and DIVA® software.
4. Analysis. The median fluorescence in each fluorescent channel was recorded. The DIVA® software also calculated the % CV (variability coefficient), which can be considered as an equivalent of error bar value for repeated measure and allow statistical comparison between samples.

[1] = Jurkat T cell lysate, 20' incubation, captured on PECAM1.2-CBA beads

**Q.** How did the “MFI CD3” value (CD3 associated with bead-captured CD31, Jurkat T cells) turn out when sodium ortovanadate [Na3VO4/H2O2] was run?
**A.** Its value is 354 MFI.

**Q.** What about the “MFI CD28” value (CD28 associated with bead-captured CD31, Jurkat T cells) of the same substance?
**A.** Its value is 3932 MFI.

**Q.** And the “% shed CD31” value [1]?
**A.** The value was 25%.

**Q.** And the “CD31 dom2” value [1]?
**A.** The value was 77 ng/mL.

**Q.** What about the “CD31 dom6” value [1] of the same substance?
**A.** Its value is 103 ng/mL.

**Q.** What about the “MFI SHP-2” value (SHP-2 associated with bead-captured CD31, Jurkat T cells) of the same substance?
**A.** The value was 193 MFI.

**Q.** And the “MFI CD31 pY686” value (bead-captured CD31, Jurkat T cells)?
**A.** The value was 10667 MFI.

**Q.** What about the “MFI pSer/pThreo” value (phosphoSerin/Threonin on bead-captured CD31 complex, Jurkat T cells) of the same substance?
**A.** Its value is 324 MFI.

**Q.** What about the “MFI pY (4G10)” value (total phosphoTyrosin on bead-captured CD31 complex, Jurkat T cells) of the same substance?
**A.** Its value is 1205 MFI.
